# In US11986532B2 (Arvinas Operations, Inc., priority 2021, dated 2024):
# Like-named read-outs stand apart in the source and are kept apart here.
# Target: T1, BCL6 (Homo sapiens, UniProt P41182)
# T1 construct: endogenous in cells; host or cells: T47D breast cancer epithelial cells
# Assay: Immunofluorescence protocol for high content imaging of BCL6 (degradation) in T47D cells, 3 days compound treatment
# Format: cell-based
# Conditions: for Dmax: read-out: Mean Dmax (%)** category; for DC50: read-out: Mean DC50 (nM)* category
# Procedure: Immunofluorescence Protocol for High Content Imaging of BCL6
# T47D cells were seeded in 100 μl volume of RPMI1640-10% FBS in a 96-well black/clear bottom plates for adherent lines (Corning #3904).
# Day 1. T47D breast cancer epithelial cells were seeded at a density so that confluence is ˜70-90% at endpoint. Cells were seeded at 7K/0.1 ml/well the morning prior to the addition of exemplary bifunctional degradation compounds.
# Day 2. Prepare an 11 point 3-fold serial dilution of exemplary bifunctional compound in DMSO and aliquot an appropriate volume to cell growth media to generate a 2× final concentration of exemplary bifunctional compound. Add an equal volume (0.1 ml) of 2× exemplary bifunctional compound/media mix to previously plated cells, for a final top concentration in aqueous cell growth media of 0.1 or 1 μM. Incubate for 3 days at 37° C., 5% CO2.
# Day 5 Immunofluorescence. Discard cell media. Wash wells with 200 μl of room temperature phosphate-buffered saline (PBS). Prepared 4% paraformaldehyde (PFA) from 16% PFA (Electron Microscopy Sciences #15710) using 1×PBS. Fifty μl of 4% PF was added to each well and incubate for 15 minutes at room temperature to fix the cells. The PFA was aspirated and the cells washed twice with PBS (200 μl)).
# Prepared 0.1% Triton X-100 in PBS using 10% triton X-100 stock. The cells were permeabilized by adding 100 ul of the 0.1% Triton X-100 in PBS to each well to permeabilize cells and incubating at room temperature for 15 minutes. Cells were washed twice with PBS.
# Prepared 3% BSA/PBS (from Thermofisher #37515 Blocker BSA in TBS, 10%), and 100 ul was added to each well. The cells were incubated for at least 1 hour at room temperature.
# Prepared 1% BSA/PBS using Blocker BSA/PBS, and the 3% BSA/PBS removed from the wells.
# For no primary antibody controls, 50 μl 1% BSA/PBS was added.
# Primary antibody (BCL6 Rb Ab, CST-14895, Cell Signaling) was diluted 1:300 in 1% BSA/PBS using Blocker BSA/PBS.
# Fifty μl of primary antibody added to all remaining wells (i.e., all wells other than the primary antibody controls) and the cells were incubated overnight at 4° C. with slow orbital movement.
# Day 6. Contents of the wells was removed and the cells washed four times with 200 ul PBS. 1% BSA/PBS was prepared using Blocker BSA in PBS.
# Diluted secondary antibody goat anti-Rb IgG Alexa-488 1:1000, and cell mask-Alexa-647 1:3000 in 1% BSA/PBS in the same mix. Add 50 μl to each well and incubate at room temperature for 1 hour in the dark.
# Cells were washed three times with 200 ul PBS, and then incubated for 10 minutes with 100 ul Hoechst dye at 1 μg/mL (20 mM stock) to stain cell nuclei. Wells were then washed with 200 μl PBS, and 100 ul of PBS was added to each well and the plate covered plate with a plastic opaque cover. Plates were stored at 4° C. and covered in aluminum foil until imaged.
# Plates were equilibrated to room temperature prior to reading. The bottom of the plate was wiped with 70% isopropanol immediately prior to imaging.
# 10×, 4 fields/well, include Top hat smoothing in the analysis protocol.
# 16% paraformaldehyde: Electron Microscopy Sciences #15710
# Hoechst: Thermofisher #62249
# Blocker BSA in PBS, 10%: Thermofisher #37515
# Blocker BSA in TBS, 10%: Thermofisher #37520
# Goat anti-rabbit or mouse AlexaFluor-488: Thermofisher #A11008
# Cell mask deep red AlexaFluor-647: Thermofisher #C10046
# Wash buffer, PBS: 20×PBS, Thermofisher
# [1] = T47D cells, 3 days compound treatment
SMILES,Dmax (T47D),DC50,DC50 [1],Dmax [1]
"CNC(=O)COc1cc2cc(Nc3nc(N4CCC(C(C)(C)N5CCC6(CC5)CN(c5c(OC)ccc7c5CN(C5CCC(=O)NC5=O)C7=O)C6)CC4)ncc3Cl)ccc2n(C(C)C)c1=O (stereo not drawn) [Compound 327, 2-{[6-({5-chloro-2-[4-(2-{2-[2-(2,6-dioxopiperidin-3-yl)-5-methoxy-1-oxo-2,3-dihydro-1H-isoindol-4-yl]-2,7-diazaspiro[3.5]nonan-7-yl}propan-2-yl)piperidin-1-yl]pyrimidin-4-yl}amino)-2-oxo-1-(propan-2-yl)-1,2-dihydroquinolin-3-yl]oxy}-N-methylacetamide]",≥ 70%,< 10 nM,,
"CNC(=O)COc1cc2cc(Nc3nc(N4CCC(O[C@H]5C[C@H](N6CCN(c7c(F)cc8c(c7F)CN(C7CCC(=O)NC7=O)C8=O)CC6)C5)CC4)ncc3Cl)ccc2n(C(C)C)c1=O (stereo partly drawn) [Compound 386, 2-({6-[(5-chloro-2-{4-[(1r,3r)-3-{4-[2-(2,6-dioxopiperidin-3-yl)-4,6-difluoro-1-oxo-2,3-dihydro-1H-isoindol-5-yl]piperazin-1-yl}cyclobutoxy]piperidin-1-yl}pyrimidin-4-yl)amino]-2-oxo-1-(propan-2-yl)-1,2-dihydroquinolin-3-yl}oxy)-N-methylacetamide]",50 to 70%,< 10 nM,,
"CNC(=O)COc1cc2cc(Nc3nc(N4CCC(O[C@H]5C[C@H](N6C[C@@H](C)N(c7ccc8c(c7)CN(C7CCC(=O)NC7=O)C8=O)[C@@H](C)C6)C5)CC4)ncc3Cl)ccc2n(C(C)C)c1=O (stereo partly drawn) [Compound 174, 2-({6-[(5-chloro-2-{4-[(1r,3r)-3-[(3R,5S)-4-[2-(2,6-dioxopiperidin-3-yl)-1-oxo-2,3-dihydro-1H-isoindol-5-yl]-3,5-dimethylpiperazin-1-yl]cyclobutoxy]piperidin-1-yl}pyrimidin-4-yl)amino]-2-oxo-1-(propan-2-yl)-1,2-dihydroquinolin-3-yl}oxy)-N-methylacetamide]",,,< 10 nM,≥ 70%
"CNC(=O)COc1cc2cc(Nc3nc(N4CCC(O[C@H]5C[C@H](N6CCN(c7cc(F)c(F)c8c7C(=O)N(C7CCC(=O)NC7=O)C8)CC6)C5)CC4)ncc3Cl)ccc2n(C(C)C)c1=O (stereo partly drawn) [Compound 274, 2-({6-[(5-chloro-2-{4-[(1r,3r)-3-{4-[2-(2,6-dioxopiperidin-3-yl)-6,7-difluoro-3-oxo-2,3-dihydro-1H-isoindol-4-yl]piperazin-1-yl}cyclobutoxy]piperidin-1-yl}pyrimidin-4-yl)amino]-2-oxo-1-(propan-2-yl)-1,2-dihydroquinolin-3-yl}oxy)-N-methylacetamide]",< 50%,10 to 50 nM,,
"CNC(=O)COc1cc2cc(Nc3nc(N4CCC(O[C@H]5C[C@H](N6CCN(c7ccc8c(c7)C(=O)N(C7CCC(=O)NC7=O)C8=O)C(C)(C)C6)C5)CC4)ncc3Cl)ccc2n(C(C)C)c1=O (stereo partly drawn) [Compound 367, 2-({6-[(5-chloro-2-{4-[(1r,3r)-3-{4-[2-(2,6-dioxopiperidin-3-yl)-1,3-dioxo-2,3-dihydro-1H-isoindol-5-yl]-3,3-dimethylpiperazin-1-yl}cyclobutoxy]piperidin-1-yl}pyrimidin-4-yl)amino]-2-oxo-1-(propan-2-yl)-1,2-dihydroquinolin-3-yl}oxy)-N-methylacetamide]",≥ 70%,10 to 50 nM,,
"CNC(=O)COc1cc2cc(Nc3nc(N4CCC(N5CCC6(C5)CN(C5CCN(c7ccc8c(c7)C(=O)N(C7CCC(=O)NC7=O)C8=O)CC5)C6)CC4)ncc3Cl)ccc2n(C(C)C)c1=O (stereo not drawn) [Compound 224, 2-{[6-({5-chloro-2-[4-(2-{1-[2-(2,6-dioxopiperidin-3-yl)-1,3-dioxo-2,3-dihydro-1H-isoindol-5-yl]piperidin-4-yl}-2,6-diazaspiro[3.4]octan-6-yl)piperidin-1-yl]pyrimidin-4-yl}amino)-2-oxo-1-(propan-2-yl)-1,2-dihydroquinolin-3-yl]oxy}-N-methylacetamide]",≥ 70%,10 to 50 nM,,
"CNC(=O)COc1cc2cc(Nc3nc(N4CCC(O[C@H]5C[C@H](N6CCC(c7ccc8c(c7F)[C@@H](C)N([C@H]7CCC(=O)NC7=O)C8=O)CC6)C5)CC4)ncc3Cl)ccc2n(C(C)C)c1=O [Compound 288, 2-({6-[(5-chloro-2-{4-[(1r,3r)-3-{4-[(3R)-2-[(3S)-2,6-dioxopiperidin-3-yl]-4-fluoro-3-methyl-1-oxo-2,3-dihydro-1H-isoindol-5-yl]piperidin-1-yl}cyclobutoxy]piperidin-1-yl}pyrimidin-4-yl)amino]-2-oxo-1-(propan-2-yl)-1,2-dihydroquinolin-3-yl}oxy)-N-methylacetamide]",< 50%,10 to 50 nM,,
"CNC(=O)COc1cc2cc(Nc3nc(N4CCC(O[C@H]5C[C@H](N6CC7(CCN(c8ccc9c(c8)CN(C8CCC(=O)NC8=O)C9=O)CC7)C6)C5)CC4)ncc3Cl)ccc2n(C(C)C)c1=O (stereo partly drawn) [Compound 369, 2-({6-[(5-chloro-2-{4-[(1r,3r)-3-{7-[2-(2,6-dioxopiperidin-3-yl)-1-oxo-2,3-dihydro-1H-isoindol-5-yl]-2,7-diazaspiro[3.5]nonan-2-yl}cyclobutoxy]piperidin-1-yl}pyrimidin-4-yl)amino]-2-oxo-1-(propan-2-yl)-1,2-dihydroquinolin-3-yl}oxy)-N-methylacetamide]",≥ 70%,< 10 nM,,
"CNC(=O)COc1cc2cc(Nc3nc(N4CCC(O[C@H]5C[C@H](N6CCC(c7cc(F)c8c(c7)C(=O)N(C7CCC(=O)NC7=O)C8)C(F)C6)C5)CC4)ncc3Cl)ccc2n(C(C)C)c1=O (stereo partly drawn) [Compound 281, 2-({6-[(5-chloro-2-{4-[(1r,3r)-3-{4-[2-(2,6-dioxopiperidin-3-yl)-7-fluoro-3-oxo-2,3-dihydro-1H-isoindol-5-yl]-3-fluoropiperidin-1-yl}cyclobutoxy]piperidin-1-yl}pyrimidin-4-yl)amino]-2-oxo-1-(propan-2-yl)-1,2-dihydroquinolin-3-yl}oxy)-N-methylacetamide]",< 50%,10 to 50 nM,,
"CNC(=O)COc1cc2cc(Nc3nc(N4CCN(CC5CCN(c6c(F)ccc7c6CN(C6CCC(=O)NC6=O)C7=O)CC5)CC4)ncc3Cl)ccc2n(C(C)C)c1=O (stereo not drawn) [Compound 297, 2-{[6-({5-chloro-2-[4-({1-[2-(2,6-dioxopiperidin-3-yl)-5-fluoro-1-oxo-2,3-dihydro-1H-isoindol-4-yl]piperidin-4-yl}methyl)piperazin-1-yl]pyrimidin-4-yl}amino)-2-oxo-1-(propan-2-yl)-1,2-dihydroquinolin-3-yl]oxy}-N-methylacetamide]",50 to 70%,< 10 nM,,
"CNC(=O)COc1cc2c(F)c(Nc3nc(N4CCC(O[C@H]5C[C@H](N6CCC(c7ccc8c(c7F)CN([C@@H]7CCC(=O)NC7=O)C8=O)CC6)C5)CC4)ncc3Cl)ccc2n(C(C)C)c1=O [Compound 381, 2-({6-[(5-chloro-2-{4-[(1r,3r)-3-(4-{2-[(3R)-2,6-dioxopiperidin-3-yl]-4-fluoro-1-oxo-2,3-dihydro-1H-isoindol-5-yl}piperidin-1-yl)cyclobutoxy]piperidin-1-yl}pyrimidin-4-yl)amino]-5-fluoro-2-oxo-1-(propan-2-yl)-1,2-dihydroquinolin-3-yl}oxy)-N-methylacetamide]",≥ 70%,< 10 nM,,
"CNC(=O)COc1cc2cc(Nc3nc(N4CCC(O[C@H]5C[C@H](N6CC[C@H](c7ccc8c(c7F)CN([C@H]7CCC(=O)NC7=O)C8=O)C(C)(C)C6)C5)CC4)ncc3Cl)ccc2n(C(C)C)c1=O [Compound 210, 2-({6-[(5-chloro-2-{4-[(1r,3r)-3-[(4S)-4-{2-[(3S)-2,6-dioxopiperidin-3-yl]-4-fluoro-1-oxo-2,3-dihydro-1H-isoindol-5-yl}-3,3-dimethylpiperidin-1-yl]cyclobutoxy]piperidin-1-yl}pyrimidin-4-yl)amino]-2-oxo-1-(propan-2-yl)-1,2-dihydroquinolin-3-yl}oxy)-N-methylacetamide]",,,< 10 nM,≥ 70%
